From article PMC7091493 (Journal of medicinal chemistry, 2019)

Key:
Assay type in all cases: biochemical
[1] = molecular target: Mtb20S (Mycobacterium tuberculosis, UniProt P9WHT9); conditions: for inhibitory potency against Mtb20S (in words): qualitative statement, comparison as stated in the sentence
[2] = molecular target: human i-20S β5i (Homo sapiens, UniProt P20618+P28062); experiment: Human immunoproteasome inhibition assay; conditions: for inhibitory potency against human i-20S (in words): qualitative statement, comparison as stated in the sentence
[3] = molecular target: human c-20S β5c (Homo sapiens, UniProt P20618+P28074); conditions: qualitative statement; comparison as stated in the sentence

Sequence of Mtb20S (P9WHT9 58-291): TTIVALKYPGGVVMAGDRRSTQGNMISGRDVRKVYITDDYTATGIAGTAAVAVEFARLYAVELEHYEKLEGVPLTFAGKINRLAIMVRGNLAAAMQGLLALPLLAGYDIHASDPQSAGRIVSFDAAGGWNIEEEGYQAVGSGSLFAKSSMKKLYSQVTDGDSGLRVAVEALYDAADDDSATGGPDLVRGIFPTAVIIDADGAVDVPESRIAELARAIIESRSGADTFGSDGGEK

| SMILES | inhibitory potency against Mtb20S (in words) [1] | selectivity for Mtb20S over both c-20S and i-20S (in words) [1] | other results |
| --- | --- | --- | --- |
| Cc1cc(C(=O)N[C@@H](CC(=O)N2CCCC[C@@H]2C)C(=O)N[C@@H](C)C(=O)NCc2ccc(F)cc2F)no1 [A85] | maintaining potency | – | selectivity for Mtb20S over i-20S β5i [2]: 4 fold |
| Cc1cc(C(=O)N[C@@H](CC(=O)N2CCC[C@@H]2c2ccccc2)C(=O)N[C@@H](C)C(=O)NCc2ccc(F)cc2F)no1 [A86] | – | – | improvement in IC50 values against Mtb20S ([1]; relative to A85): 2.4 fold |
| Cc1cc(C(=O)N[C@@H](CC(=O)N2CCC[C@@H]2c2ccccc2)C(=O)N[C@@H](C)C(=O)NCc2c(F)cccc2F)no1 [A119] | maintained | – | inhibitory potency against human i-20S (in words) [2]: reduced |
| COc1ccccc1CNC(=O)[C@H](C)NC(=O)[C@H](CC(=O)N1CCC[C@@H]1c1ccccc1)NC(=O)c1cc(C)on1 [A120] | reduced | – | inhibitory potency against human c-20S (in words) [3]: reduced; inhibitory potency against human i-20S (in words) [2]: reduced |
| Cc1cc(C(=O)N[C@@H](CC(=O)N2CCCC[C@@H]2C)C(=O)N[C@@H](C)c2ncc(-c3ccccc3)[nH]2)no1 [B1] | modest inhibitory activity | – | – |
| Cc1cc(C(=O)N[C@@H](CC(=O)N2CCC[C@@H]2c2ccccc2)C(=O)N[C@@H](C)c2ncc(-c3ccccc3F)[nH]2)no1 [B6] | highly potent | markedly selective | – |
| Cc1cc(C(=O)N[C@@H](CC(=O)N2CCC[C@@H]2c2ccccc2)C(=O)N[C@@H](C)c2ncc(-c3ccccc3)[nH]2)no1 [B36] | highly potent | markedly selective | – |
| Cc1cc(C(=O)N[C@@H](CC(=O)N2CCC[C@@H]2c2ccccc2)C(=O)N[C@@H](C)c2ncc(-c3ccc(F)cc3F)[nH]2)no1 [B37] | highly potent | markedly selective | – |
